Measured values from patent US8003673B2, “Daptomycin for the treatment of biofilm and catheter salvage” (Cubist Pharmaceuticals, Inc., priority 2006, dated 2011).
Converted amounts (≈) assume the structure as drawn. “Also recorded” adds a separate entry of the source. Like-named read-outs stand apart in the source and are kept apart here.

Key:
[1] = tested on: Methicillin-resistant coagulate negative staphylococci biofilms; assay type: cell-based, coagulase negative staphylococci (S. epidermidis isolates)
Protocol: Methicillin-resistant coagulate negative staphylococci biofilms were grown to approximately 10^5 cells per cm^2 for 24 h in glass test tubes, planktonic bacteria rinsed away and Mueller Hinton broth (calcium supplemented to […] in daptomycin tests) containing antimicrobials added to the tubes. The concentrations of antimicrobials studied were two-fold dilutions from 64 to 1 μg/mL of daptomycin, rifampin, or daptomycin plus 0.5 μg/mL rifampin. The tests were incubated overnight in room air at 37° C. The cell density in rinsed biofilms was determined prior to addition of antimicrobials and after incubation. The change in bacterial density after incubation with antimicrobials was determined, and the results were expressed as the lowest antimicrobial concentration that killed 99.90% of biofilm bacteria. Bacteria recovered from tests containing rifampin were tested for rifampin susceptibility.

[2] = tested on: Staphylococcus epidermidis; experiment: Susceptibility (MIC) of S. epidermidis isolates used in CVC studies
[3] = tested on: S. epidermidis CVC infection; experiment: Rat model of CVC infection, infusion therapy; assay type: in vivo, Sprague Dawley rats
Protocol: (§1) Male Sprague Dawley rats (˜250 g) with catheterized jugular veins were used in these studies. Rat catheters (polyurethane tubing, 0.025 inch internal diameter) were inoculated with a culture of S. epidermidis at 5×10^8 CFU/ml. The total volume of the catheters is approximately 40 μl. The catheters were flushed with heparinized saline 1 hour after inoculation, and were maintained by daily flushes. The catheter infection was monitored by daily blood draws that were plated and quantified.
(§2) Daptomycin, vancomycin and nafcillin were used as therapy. Two different dosing regimes were used. The first mimicked clinical infusion with daptomycin administered at 5 mg/ml in the line for 30 minutes once daily compared to vancomycin at 5 mg/ml for 60 minutes twice daily, for a total of 4 days. The second regime simulated antibiotic lock therapy with an 18 hour exposure of daptomycin or vancomycin at 5 mg/ml, followed by a heparinized saline flush, daily for 3 days. In both regimes, the animals received parenteral doses of the appropriate antibiotic by subcutaneous route to simulate total body exposure (as it was not possible to administer the correct dosages through the line at 5 mg/ml). Most trials involved a therapy period, followed by a period of no antibiotic therapy to monitor for resurgence of infection due to surviving bacterial colonies.
(§3) Infection levels were monitored by daily blood draws through the infected catheter. For the terminal harvest, a final blood draw was taken and then the flushed catheter was harvested, and analyzed for surviving bacteria by sonication, vortexing, and plating. The vena cava, heart, lung, kidney, and spleen were assayed as potential metastatic infection sites by aseptic harvest, homogenization, and plating.

[4] = tested on: S. epidermidis CVC infection; experiment: Rat model of CVC infection, antibiotic lock therapy; assay type: in vivo, Sprague Dawley rats
Protocol: as §1, §2, §3

Staphylococcus aureus = experiment: Susceptibility (MIC) of S. aureus #42 control strain; assay type: cell-based; settings: strain 42 Staphylococcus aureus; read-out: MIC
[5] = tested on: S. epidermidis biofilm in catheter; experiment: Histopathology of CVC biofilms in the rat model; assay type: in vivo, Sprague Dawley rats
Protocol: The nature of the CVC infection and resulting biofilms in the catheter was determined through histopathology. The data on histopathology can be summarized as follows: • 1. Eight days after implantation, the rat central venous catheter model develops focal biofilms with or without bacterial colonies in the catheter's inner luminal surfaces. At this time point, the thickness of the biofilm varies between 7 to 15 microns. • 2. After 12 days of implantation, the fibrils making up the inner luminal surface biofilm appear to be denser and more organized, and the biofilm layer is slightly thicker (up to 25 microns). • 3. In the saline negative controls, bacterial colonies were present in the biofilm, and identified as Gram positive cocci. • 4. […] However, cocci-like, Gram positive individual round structures were noted. • 5.
At day 12 post infection in untreated rats, as in the previous time point, biofilms tended to be present in the inner luminal surfaces of the indwelling catheter, 5-25 microns thick, and contained variable numbers of basophilic granular bacterial colonies (confirmed by Gram stain). However, in contrast to the previous time point, focal portions of the luminal protein cast appeared to be more organized and contained numerous bluish bacterial colonies. See FIG. 10 showing the biofilm appearance at day 12 post infection. […] Rat A1 served as negative control and received saline (2 mL/kg SC+saline via catheter); Rat A6 received low-dose daptomycin (10 mg/kg SC+5 mg/mL via catheter); Rat A12 received high-dose daptomycin (33 mg/kg SC+5 mg/mL via catheter); and Rat A17 received vancomycin (50 mg/kg SC+5 mg/mL via catheter). Tissues from the four rats were evaluated. FIG. 11, below, is a composite of the findings for all four rats.
FIG. 11 provides histopathological evidence of daptomycin and vancomycin efficacy after 4 days of infusion therapy. In FIG. 11, from left to right, the images illustrate the CVC tissues from rats A1, A6, A12, and A17, respectively. The upper images are all H&E-stained and the bottom images are all Gram-stained. […] These round structures surrounded or encircled cell membranes.

[6] = tested on: stationary phase S. epidermidis; experiment: In vitro model of stationary phase bacteria (kill kinetics); assay type: cell-based; settings: for Cidal activity against stationary phase culture: through 24 hours
Protocol: The impact of cidal activity of antibacterial compounds on stationary phase bacteria was assayed. Cultures of S. epidermidis and S. aureus were grown to stationary phase (>1×10^9 and centrifuged, washed 2×, and then resuspended into saline or lactated Ringer's solution. The cultures were treated with either daptomycin or vancomycin at 5 mg/ml and the decrease in viable bacteria were measured through 24 hours to determine the kill kinetics.

[7] = Antimicrobial Concentration ≧64
[8] = following 7 days of antibiotic-free heparin flushes

CCCCCCCCCC(=O)N[C@@H](Cc1c[nH]c2ccccc12)C(=O)N[C@H](CC(N)=O)C(=O)N[C@@H](CC(=O)O)C(=O)N[C@@H]1C(=O)NCC(=O)N[C@@H](CCCN)C(=O)N[C@@H](CC(=O)O)C(=O)N[C@H](C)C(=O)N[C@@H](CC(=O)O)C(=O)NCC(=O)N[C@H](CO)C(=O)N[C@@H]([C@H](C)CC(=O)O)C(=O)N[C@@H](CC(=O)c2ccccc2N)C(=O)O[C@@H]1C [Daptomycin]
# of isolates (lowest concentration that killed 99.90% of biofilm bacteria) ([1]; Antimicrobial Concentration 1): 0 | # of isolates (lowest concentration that killed 99.90% of biofilm bacteria) ([1]; Antimicrobial Concentration 2): 5 | Mean log10 reduction ([1]; Antimicrobial Concentration 2): 3.3 log10 | # of isolates (lowest concentration that killed 99.90% of biofilm bacteria) ([1]; Antimicrobial Concentration 4): 4 | Mean log10 reduction ([1]; Antimicrobial Concentration 4): 3.2 log10 | # of isolates (lowest concentration that killed 99.90% of biofilm bacteria) ([1]; Antimicrobial Concentration 8): 5 | Mean log10 reduction ([1]; Antimicrobial Concentration 8): 3.8 log10 | # of isolates (lowest concentration that killed 99.90% of biofilm bacteria) ([1]; Antimicrobial Concentration 16): 1 | Mean log10 reduction ([1]; Antimicrobial Concentration 16): 3.5 log10 | # of isolates (lowest concentration that killed 99.90% of biofilm bacteria) ([1]; Antimicrobial Concentration 32): 2 | Mean log10 reduction ([1]; Antimicrobial Concentration 32): 3.6 log10 | # of isolates (lowest concentration that killed 99.90% of biofilm bacteria) [1, 7]: 10 | Mean log10 reduction [1, 7]: 2.0 log10 | Emergence of rifampin resistance in biofilm isolates ([1]; after exposure overnight): did not prevent emergence of rifampin resistance | Cidal concentration in biofilm relative to comparator ([1]; comparison with rifampin): cidal at lower concentrations than was rifampin | Isolates with bactericidal activity in biofilm ([1]; with ≦32 μg/mL daptomycin): 27 of 30 | MIC ([2]; strain 119 Staphylococcus epidermidis): 0.25 µg/mL (≈ 0.154 µM) | MIC ([2]; strain 1315 Staphylococcus epidermidis): 0.5 µg/mL (≈ 0.309 µM) | MIC ([2]; strain 1316 Staphylococcus epidermidis): 0.5 µg/mL (≈ 0.309 µM) | MIC ([2]; strain 1317 Staphylococcus epidermidis): 1 µg/mL (≈ 0.617 µM) | MIC ([2]; strain 1318 Staphylococcus epidermidis): 1 µg/mL (≈ 0.617 µM) | MIC ([2]; strain 1319 Staphylococcus epidermidis): 1 µg/mL (≈ 0.617 µM) | MIC ([2]; strain 1320 Staphylococcus epidermidis): 0.5 µg/mL (≈ 0.309 µM) | Catheter infection by CVC blood draw after infusion therapy ([3]; 5 mg/ml in line, daptomycin once a day, vancomycin twice a day, after three days of therapy (day 8)): reduced most catheter infections to a non-detectable level | Overall outcome of infusion therapy ([3]; 30 minute infusion at 5 mg/ml): temporarily reduced catheter infections to a non-detectable level, but infection resurgence was common; also recorded: reduced biofilm to non-detectable level, but a resurgence of infection was common | Metastatic infection after infusion therapy (vena cava, heart, lung, kidney, spleen) ([3]; infusion therapy, same groups as FIG. 3): very little metastatic infection at any site | Overall outcome of lock therapy ([4]; 18 hour lock at 5 mg/ml): curative and prevented resurgence; also recorded: reduced biofilm to a non-detectable level and largely prevented resurgence of infection | Animals with positive blood draws after lock therapy [4, 8]: 0/6 | Animals with positive catheter at harvest after lock therapy [4, 8]: 1/6 | Metastatic infection after lock therapy ([4]; lock therapy combined with SC dosing): cleared and prevented reemergence of metastatic infection | MIC (Staphylococcus aureus): 0.5 µg/mL (≈ 0.309 µM) | Biofilm formation and Gram positive bacterial colonies in the biofilm (histopathology summary) ([5]; 5 mg/mL via the catheter): did not prevent biofilm formation, but prevented the growth and presence of Gram positive bacterial colonies in the biofilm | Bacterial colonies in biofilm, histopathology of single rats ([5]; after 4 days of infusion therapy, rat A12 daptomycin 33 mg/kg SC + 5 mg/mL via catheter, rat A17 vancomycin 50 mg/kg SC + 5 mg/mL via catheter): not interpreted to be bacterial colonies | Cidal activity against stationary phase culture ([6]; 5 mg/ml in lactated Ringer's): rapidly cidal; also recorded: cidal in lactated Ringer's | Cidal activity against stationary phase culture ([6]; 5 mg/ml in saline): neither daptomycin nor vancomycin had cidal activity | Cidal activity against stationary phase S. epidermidis (conclusion) ([6]; in vitro, medium not stated): cidal
